Assay results reported in paper PMC5795052 (Open Biology, 2018).

Legend:
[1] = test system: aVP-induced IP3 production in hVSMC; assay: IP3 production (ELISA) in hVSMC upon aVP stimulation; type: cell-based, human; settings: TM peptides 10 µM, 30 min at 37°C, then aVP 1 µM, 5 min; n = 4; figure 8c
Protocol: (§1) hVSMCs (primary aortic smooth muscle cells, ATCC PCS-100-012), A7r5 cells (ATCC-CRL-1444) and HEK293T cells (ATCC-CRL-11268) were purchased from American Type Culture Collection. hVSMCs were cultured in vascular basal media (ATCC PCS-100-030) supplemented with the vascular smooth muscle growth kit (ATCC PCS-100-042), containing 100 U ml^−1 penicillin and 100 µg ml^−1 streptomycin. hVSMCs were used between passages 2–5. HEK293T and A7r5 cells were cultured in high-glucose Dulbecco's Modified Eagle's Medium containing 10 mg ml^−1 sodium pyruvate, 2 mM L-glutamine, 10% (vol/vol) FBS, 1× non-essential amino acids, 100 U ml^−1 penicillin and 100 µg ml^−1 streptomycin. The HTLA cell line, a HEK293 cell line stably expressing a tTA-dependent luciferase reporter and a β-arrestin 2–TEV fusion gene were generously provided by the laboratory of Dr Bryan Roth and maintained in high-glucose Dulbecco's Modified Eagle's Medium supplemented with 10% (vol/vol) FBS, 1× non-essential amino acids, 100 U ml^−1 penicillin, 100 µg ml^−1 streptomycin, 50 µg ml^−1 hygromycin B and 2 µg ml^−1 puromycin. All cells were cultured in a humidified environment at 37°C, 5% CO2.
ACKR3 and CXCR4 siRNA gene silencing was performed as described previously. In brief, cells were grown in 2 ml Accell siRNA delivery media per well (Dharmacon) in six-well plates (Nunc). Commercially available Accell ACKR3 and CXCR4 siRNA were reconstituted with 1× siRNA buffer to a stock concentration of 100 µM. Cells were then transfected with 1 µM ACKR3/CXCR4 siRNA and incubated for 72 h at 37°C, 5% CO2. Accell NT-siRNA pool was used as a negative control. After 72 h, cells were assayed for receptor cell surface expression and used for signalling experiments.
IP3 enzyme-linked immunosorbent assays were purchased from LS Bio and performed as per the manufacturer's protocol (LS BIO F10644). In brief, hVSMCs were grown to confluency in six-well dishes (Nunc) and then treated as described in the Results section. Cells were then washed once with cold PBS, 225 µl of cold PBS was added to each well and cells were lysed by ultrasonication. The cell lysate was centrifuged for 10 min at 4°C at 1500g to remove cellular debris. The total protein concentration in the supernatant was determined with the Bio-Rad DC Protein Assay as per the manufacturer's protocol (Bio-Rad 500-0116). Equivalent amounts of total protein were added to the ELISA strips diluted in the provided sample diluent (1 : 5 and 1 : 10). The assay was then completed as per the manufacturer's protocol. Optical densities were read on a Biotek Synergy II microplate reader (absorbance at 450 nm), and IP3 concentrations were extrapolated from the standard curve.

ACKR3 : AVPR1A heteromer = assay: PLA signals for ACKR3 : AVPR1A interactions in hVSMC; type: cell-based, human; settings: 10 µM, 30 min at 37°C; figure 8b; *p < 0.05 versus vehicle
Protocol: as §1
(§2) PLAs were performed as described in detail previously. In brief, cells were grown and fixed on eight-well chamber slides (Nunc). […]

CXCR4 : AVPR1A heteromer = assay: PLA signals for CXCR4 : AVPR1A interactions in hVSMC; type: cell-based, human; settings: 10 µM, 30 min at 37°C; figure 8b
Protocol: as §1, §2

ACKR3 [2] = assay: β-arrestin 2 recruitment assay (PRESTO-Tango) for ACKR3 co-expressed with pcDNA3 or HA-AVPR1A; type: cell-based, human; settings: cells co-expressing ACKR3-Tango and AVPR1A, TM peptides 10 µM, 30 min at 37°C, figure 9h; for effect of TM peptides on efficacy of aVP to induce β-arrestin 2 recruitment to ACKR3-Tango: then aVP, versus vehicle
From the text: The human AVPR1A cDNA sequence was from the AVPR1A-TANGO plasmid (Addgene, plasmid #66225). The hRLuc cDNA was PCR-amplified from pIRES-Myc-hCXCR4-Rluc, which was generously provided by Dr Michel Bouvier, with primers carrying the AgeI and XbaI sites at either end, respectively, and ligated with the C-terminus of AVPR1A at the corresponding sites. Human CXCR4 and ACKR3 cDNAs were from the CXCR4-TANGO (Addgene, plasmid #66262) and the ACKR3-TANGO (Addgene, plasmid #66265) plasmids. The EYFP cDNA was PCR-amplified from pEYFP with primers harbouring AgeI and XbaI sites and ligated with the C-terminus of ACKR3. All plasmids were confirmed by sequencing.
as §1
The PRESTO-Tango (parallel receptorome expression and screening via transcriptional output, with transcriptional activation following arrestin translocation) assay was performed as recently described. The Tango plasmids were a gift from Dr Bryan Roth (all from Addgene). HTLA cells (2.5 × 10^5 per well) were seeded in a six-well plate and transfected with 1.5 µg of the Tango plasmids using Lipofectamine 3000 (ThermoScientific). The following day, transfected HTLA cells (1 × 10^5 cells per well) were plated onto poly-L-lysine precoated 96-well microplates and allowed to attach to the plate surface for at least 4 h prior to treatment. Proteins used for treatment were prepared in twice the final concentration in culture media, added at a 1 : 1 vol/vol ratio and incubated overnight at 37°C, 5% CO2 in a humidified environment. The following morning, media were removed from cell culture plates and replaced with a 100 µl 1 : 5 mixture of Bright-Glo (Promega) and 1× HBSS, 20 mM HEPES solution. Plates were then incubated at room temperature before measuring luminescence on a Biotek Synergy II plate reader.

ACKR3 [3] = settings: ref [21]; cited from earlier work
Protocol: The effects of the TM peptide analogues of ACKR3 on aVP-induced recruitment of β-arrestin 2 to ACKR3-Tango in cells co-expressing ACKR3-Tango and AVPR1A are shown in figure 9h.

YILNLAIADLWVVLTIPVWVVDDD [TM2, peptide analogue of transmembrane helix 2 (TM2) of ACKR3, described previously [21]]
effect of TM peptides on aVP-induced IP3 production [1]: inhibited aVP-induced IP3 production | effect of TM peptides on PLA signals for AVPR1A : ACKR3 interactions (ACKR3 : AVPR1A heteromer): reduced PLA signals for AVPR1A : ACKR3 interactions | effect of TM peptides on PLA signals for AVPR1A : CXCR4 interactions (CXCR4 : AVPR1A heteromer): did not increase AVPR1A : CXCR4 interactions | effect of TM peptides on efficacy of aVP to induce β-arrestin 2 recruitment to ACKR3-Tango (ACKR3 [2]): significantly reduced the efficacy of aVP to induce β-arrestin 2 recruitment | inhibition of aVP-induced β-arrestin 2 recruitment to ACKR3-Tango (comparison TM2/TM4) (ACKR3 [2]): inhibited aVP-induced β-arrestin 2 recruitment to ACKR3-Tango with comparable efficacy | mode of antagonism of aVP-induced β-arrestin 2 recruitment to ACKR3-Tango (ACKR3 [2]): non-competitive antagonists | behaviour in β-arrestin 2 recruitment to ACKR3-Tango upon agonist stimulation (ACKR3 [3]): competitive antagonist

VVCILWLLAFCVSLPDTYYLDD [TM4, peptide analogue of transmembrane helix 4 (TM4) of ACKR3, described previously [21]]
effect of TM peptides on aVP-induced IP3 production [1]: inhibited aVP-induced IP3 production | effect of TM peptides on PLA signals for AVPR1A : ACKR3 interactions (ACKR3 : AVPR1A heteromer): reduced PLA signals for AVPR1A : ACKR3 interactions | effect of TM peptides on PLA signals for AVPR1A : CXCR4 interactions (CXCR4 : AVPR1A heteromer): did not increase AVPR1A : CXCR4 interactions | effect of TM peptides on efficacy of aVP to induce β-arrestin 2 recruitment to ACKR3-Tango (ACKR3 [2]): significantly reduced the efficacy of aVP to induce β-arrestin 2 recruitment | inhibition of aVP-induced β-arrestin 2 recruitment to ACKR3-Tango (comparison TM2/TM4) (ACKR3 [2]): inhibited aVP-induced β-arrestin 2 recruitment to ACKR3-Tango with comparable efficacy | mode of antagonism of aVP-induced β-arrestin 2 recruitment to ACKR3-Tango (ACKR3 [2]): non-competitive antagonists | behaviour in β-arrestin 2 recruitment to ACKR3-Tango upon agonist stimulation (ACKR3 [3]): behaviour similar to the TM2 peptide, but this effect did not reach statistical significance

DDDLHVTQCLSLVHCCVNPVLYSFIN [TM7, peptide analogue of transmembrane helix 7 (TM7) of ACKR3, described previously [21]]
effect of TM peptides on aVP-induced IP3 production [1]: ineffective | effect of TM peptides on efficacy of aVP to induce β-arrestin 2 recruitment to ACKR3-Tango (ACKR3 [2]): did not show significant effects | behaviour in β-arrestin 2 recruitment to ACKR3-Tango upon agonist stimulation (ACKR3 [3]): inactive
